Key:
Assay type in all cases: cell-based
Details in all cases: 48 h; for AAM % / PBS %: 25 μM; for AAM %: mean fluorescence compared with Ac4ManNAz (AAM) positive control; for PBS %: mean fluorescence compared with PBS negative control; for Mean FL (×10^5): compound 25 μM, 37° C., DBCO-biotin then streptavidin-Cy5, mean fluorescence of live cells
MDA-MB-231 = assay: Flow cytometry analysis of cell labeling (labeling efficiency of azido compounds) in MDA-MB-231
Protocol: (§1) Cells (2.0×10^5 cells/mL, 2 mL) were seeded in a 6-well culture plate and attached at 37° C. overnight. After washed thrice with PBS, the cells were incubated with an azido compound provided herein (25 μM) at 37° C. for 48 h. After washed thrice with PBS, the cells were incubated with DBCO-biotin (50 μM) in 500 μL serum free DMEM at 37° C. for 1 h. The cells were washed thrice with PBS and then incubated with streptavidin-Cy5 (5 μg/mL) in 500 μL serum free DMEM at 37° C. for 1 h. The cells were washed thrice with PBS, followed by addition of 300 μL 1× trypsin/EDTA for digestion. The lifted cells were transferred to a 1.5 mL EP tube, centrifuge at 1,000 rpm for 3 min, and washed with PBS once. Finally, 500 μL PBS containing 4% PFA was added to the cell pellet to fix the cells. The cell suspension was transferred to a flow tube and mixed with 10 μL of a PI working solution (50 μg/mL) at room temperature for 30 min before being subjected to flow cytometry.
(§2) Flow cytometry was used to characterize the labeling efficiency of a compound provided herein. After cells were labeled with an azido group, DBCO-biotin was added to specifically react with the azido group. Avidin-Cy5 was added bind to the cell surface biotin for a flow cytometry analysis. Dead cells were stained with PI and excluded from the analysis. Results were presented as the mean fluorescence of live cells, compared with PBS as a negative control and Ac4ManNAz (AAM) as a positive control, Ac4ManNAz (AAM, CAS: 361154-30-5).

A549 cells = assay: Flow cytometry analysis of cell labeling (labeling efficiency of azido compounds) in A549 cells
Protocol: as §1, §2

OVCAR3 = assay: Flow cytometry analysis of cell labeling (labeling efficiency of azido compounds) in OVCAR3
Protocol: as §1, §2

SMILES	AAM % (MDA-MB-231) [%]	PBS % (MDA-MB-231) [%]	Mean FL (×10^5) (MDA-MB-231)	AAM % (A549 cells) [%]	PBS % (A549 cells) [%]	Mean FL (×10^5) (A549 cells)	AAM % (OVCAR3) [%]	PBS % (OVCAR3) [%]	Mean FL (×10^5) (OVCAR3)
CC(=O)OC1O[C@H](COP(=O)(N[C@@H](C)C(=O)OC(C)C)Oc2ccccc2)[C@@H](OC(C)=O)[C@H](OC(C)=O)[C@@H]1NC(=O)CN=[N+]=[N-] (stereo partly drawn) [Compound A1, acetyl 2-(2-azidoacetylamino)-2-deoxy-3,4-di-O-acetyl-6-O—(((S)-1-isopropoxy-carbonylethylamino)(phenoxy)phosphoryl)-D-mannopyranoside]	101	663	12.6 ×10^5	89	540	16.2 ×10^5			
CC(=O)OC1OC(COP(=O)(N[C@@H](C)C(=O)OC(C)c2ccccc2)Oc2ccccc2)C(OC(C)=O)C(OC(C)=O)C1NC(=O)CN=[N+]=[N-] (stereo partly drawn) [Compound A3]				48	294	8.82 ×10^5			
CC(=O)OC1OC(COP(=O)(NC(C)(C)C(=O)OC(C)c2ccccc2)Oc2ccccc2)C(OC(C)=O)C(OC(C)=O)C1NC(=O)CN=[N+]=[N-] [Compound A4, 2-(2-Azidoacetylamino)-2-deoxy-3,4-di-O-acetyl-6-O-((1-methyl-1-(1-phenyl-ethoxycarbonyl)ethylamino)(phenoxy)phosphoryl)-D-mannopyranoside]				51	311	9.32 ×10^5			
CC(=O)OC1OC(COP(=O)(N[C@H](C(=O)OC(C)c2ccccc2)C(C)C)Oc2ccccc2)C(OC(C)=O)C(OC(C)=O)C1NC(=O)CN=[N+]=[N-] (stereo partly drawn) [Compound A5, 2-(2-Azidoacetylamino)-2-deoxy-3,4-di-O-acetyl-6-O-(((1S)-1-(1-phenylethoxy-carbonyl)-2-methylpropylamino)(phenoxy)phosphoryl)-D-mannopyranoside]				20	118	3.55 ×10^5			
CCCCOC(=O)[C@H](C)NP(=O)(OC[C@H]1OC(OC(C)=O)[C@@H](NC(=O)CN=[N+]=[N-])[C@@H](OC(C)=O)[C@@H]1OC(C)=O)Oc1ccccc1 (stereo partly drawn) [Compound A18, acetyl 2-(2-azidoacetylamino)-2-deoxy-3,4-di-O-acetyl-6-O—(((S)-1-butoxy-carbonylethylamino)(phenoxy)phosphoryl)-D-mannopyranoside]	99	653	12.4 ×10^5						
CC(=O)OC1O[C@H](COP(=O)(N[C@@H](C)C(=O)OC(C)(C)C)Oc2ccccc2)[C@@H](OC(C)=O)[C@H](OC(C)=O)[C@@H]1NC(=O)CN=[N+]=[N-] (stereo partly drawn) [Compound A20, acetyl 2-(2-azidoacetylamino)-2-deoxy-3,4-di-O-acetyl-6-O—(((S)-1-tert-butoxy-carbonylethylamino)(phenoxy)phosphoryl)-D-mannopyranoside]	51	338	6.43 ×10^5						
CCCCCCOC(=O)[C@H](C)NP(=O)(OC[C@H]1OC(OC(C)=O)[C@@H](NC(=O)CN=[N+]=[N-])[C@@H](OC(C)=O)[C@@H]1OC(C)=O)Oc1ccccc1 (stereo partly drawn) [Compound A22, Acetyl 2-(2-azidoacetylamino)-2-deoxy-3,4-di-O-acetyl-6-O—(((S)-1-hexoxy-carbonylethylamino)(phenoxy)phosphoryl)-D-mannopyranoside]	104	684	13.0 ×10^5						
CCC(CC)COC(=O)[C@H](C)NP(=O)(OC[C@H]1OC(OC(C)=O)[C@@H](NC(=O)CN=[N+]=[N-])[C@@H](OC(C)=O)[C@@H]1OC(C)=O)Oc1ccccc1 (stereo partly drawn) [Compound A23, Acetyl 2-(2-azidoacetylamino)-2-deoxy-3,4-di-O-acetyl-6-O—(((S)-1-(2-ethyl-butoxy)carbonylethylamino)(phenoxy)phosphoryl)-D-mannopyranoside]	98	642	12.2 ×10^5						
CC(=O)OC1O[C@H](COP(=O)(N[C@@H](C)C(=O)OCc2cccnc2)Oc2ccccc2)[C@@H](OC(C)=O)[C@H](OC(C)=O)[C@@H]1NC(=O)CN=[N+]=[N-] (stereo partly drawn) [Compound A24, Acetyl 2-(2-azidoacetylamino)-2-deoxy-3,4-di-O-acetyl-6-O—(((S)-1-pyridin-3-ylmethoxycarbonylethylamino)(phenoxy)phosphoryl)-D-mannopyranoside]							28.7	5923	0.77 ×10^5
CC(=O)OC1O[C@H](COP(=O)(N[C@@H](C)C(=O)OCc2ccncc2)Oc2ccccc2)[C@@H](OC(C)=O)[C@H](OC(C)=O)[C@@H]1NC(=O)CN=[N+]=[N-] (stereo partly drawn) [Compound A25, Acetyl 2-(2-azidoacetylamino)-2-deoxy-3,4-di-O-acetyl-6-O—(((S)-1-pyridin-4-ylmethoxycarbonylethylamino)(phenoxy)phosphoryl)-D-mannopyranoside]							26.9	5538	0.72 ×10^5
CC(=O)OC1O[C@H](COP(=O)(N[C@@H](C)C(=O)OCc2ccnc3ccccc23)Oc2ccccc2)[C@@H](OC(C)=O)[C@H](OC(C)=O)[C@@H]1NC(=O)CN=[N+]=[N-] (stereo partly drawn) [Compound A26, Acetyl 2-(2-azidoacetylamino)-2-deoxy-3,4-di-O-acetyl-6-O—(((S)-1-quinolin-4-ylmethoxycarbonylethylamino)(phenoxy)phosphoryl)-D-mannopyranoside]	144	947	18.0 ×10^5				89.6	18462	2.4 ×10^5
CC(=O)OC1O[C@H](COP(=O)(N[C@@H](C)C(=O)OCc2cccc3ncccc23)Oc2ccccc2)[C@@H](OC(C)=O)[C@H](OC(C)=O)[C@@H]1NC(=O)CN=[N+]=[N-] (stereo partly drawn) [Compound A27, Acetyl 2-(2-azidoacetylamino)-2-deoxy-3,4-di-O-acetyl-6-O—(((S)-1-quinolin-5-ylmethoxycarbonylethylamino)(phenoxy)phosphoryl)-D-mannopyranoside]	109	716	13.6 ×10^5				93.3	19231	2.5 ×10^5
CC(=O)OC[C@H]1OC(OP(=O)(N[C@@H](C)C(=O)OC(C)c2ccccc2)Oc2ccccc2)[C@@H](NC(=O)CN=[N+]=[N-])[C@@H](OC(C)=O)[C@@H]1OC(C)=O (stereo partly drawn) [Compound B1, (((1S)-1-(1-Phenylethoxy-carbonyl)ethylamino)(phenoxy)phosphoryl) 2-(2-azidoacetylamino)-2-deoxy-3,4,6-tri-O-acetyl-D-mannopyranoside]				42	256	7.67 ×10^5			
